Legend:
[1] = tested on: patients with active ulcerative colitis; assay: Placebo-controlled randomized double-blind multicenter parallel group comparative study (Japic CTI-132294), rectal budesonide foam; type: in vivo, human
Procedure: Dose responsiveness, efficacy and safety are investigated for patients with active ulcerative colitis when budesonide 2 mg is rectally administered once a day or twice a day for 6 weeks by a double-blind comparative study with placebo as a control (clinical trial number: Japic CTI-132294). For the trial, an aerosol with fixed dose injection type for rectal injection (rectal foaming agent) is used as a test drug, in which 25 mL (1.35 g) of white creamy foam containing 2 mg of budesonide is released by one injection. As a remission induction therapeutic agent of ulcerative colitis in active phase where the lesion is confined to the rectum and sigmoid colon, the aerosol for rectal injection is approved in Europe at a dosage and dose of budesonide 2 mg once a day (trade name: Budenofalk 2 mg/dose rectal foam, manufactured by Dr. Falk Pharma GmbH). […] The subjects are ulcerative colitis patients in active phase, and are divided into a group administered the test drug once a day (hereinafter, once a day group, 54 cases), a group administered the test drug twice a day (hereafter, twice a day group, 55 cases), and a group administered the control drug (hereinafter, placebo group, 56 cases). The test drug or control drug is rectally administered twice a day (once in the morning and once in the evening), after defecation, if possible. However, for the once a day group of test drug, a control drug is administered in the morning and a test drug is administered in the evening. The number of injections per dose is one, the administration period is 6 weeks, and the drug is administered until the evening before the evaluation. The dose of budesonide in each group is 2 mg/day for the once a day group, 4 mg/day for the twice a day group, and 0 mg/day for the placebo group. Furthermore, in order to exclude patients whose symptoms improve due to the action of rectal administration (improvement example due to placebo effect) or patients who develop complaints resulting from rectal administration, a pre-observation period in which the control drug is administered twice a day (once in the morning and once in the evening) for one week under a single-blind test is set prior to this administration. […] The point estimate of the odds ratio for the placebo group (95% confidence interval on both sides) in the logistic regression model with model as main effect model, remission rate as objective variable, and administration group and assignment factor as explanatory variables is 3.994 (1.734 to 9.711) in the once a day group, and 3.674 (1.594 to 8.930) in the twice a day group. The lower limit value of 95% confidence interval on both sides exceeds 1 in both groups. […] In addition, the difference point estimate (95% confidence interval on both sides) from the placebo group is 22.8% (4.3% to 39.3%) in the once a day group, 30.5% (12.3% 46.0%) in the twice a day group. Significant differences are observed in the once a day group and twice a day group as compared with the placebo group. The results are illustrated in Table 1 and FIG. 1. In the table and figure, “budesonide once a day administration group” illustrates the result of once a day group, and “budesonide twice a day administration group” illustrates the result of twice a day group, respectively. Patients with MMDAI endoscopic score of 0 are evaluated as mucosal healing. […] In addition, the difference point estimate (95% confidence interval on both sides) from the placebo group is 18.1% (4.8% to 31.3%) in the once a day group, 40.9% (25.2% to 54.2%) in the twice a day group. Significant differences are observed in the once a day group and twice a day group as compared with the placebo group. […]

[2] = tested on: patients with active ulcerative colitis; assay: as above; type: in vivo, human; remark: listed apart in the source
[3] = 2 mg once or twice a day, 6 weeks
[4] = budesonide 2 mg once a day, 6 weeks
[5] = budesonide 2 mg twice a day, 6 weeks
[6] = once a day group, 55 analysis target cases
[7] = twice a day group, 56 analysis target cases

CCCC1O[C@@H]2C[C@H]3[C@@H]4CCC5=CC(=O)C=C[C@]5(C)[C@H]4[C@@H](O)C[C@]3(C)[C@]2(C(=O)CO)O1 (mixture of isomers) [Budesonide, (+)-[(RS)-16α,17α-Butylidenedioxy-11β,21-dihydroxy-1,4-pregnadiene-3,20-dione]]
adverse events due to administration of the test drug [1, 3]: serum cortisol decrease and serum corticotropin decrease occurs | serious adverse events or severe adverse events [1, 3]: are not occurred | incidence of adverse events, twice a day group compared with once a day group ([1]; 2 mg per dose, 6 weeks): increased | tolerability to patients of ulcerative colitis ([1]; 2 mg rectal administration once a day or twice a day for 6 weeks): acceptable | mucosal healing rate (proportion of subjects with MMDAI endoscopic score of 0) [1, 4]: 23.6% | mucosal remission rate (proportion of subjects with MMDAI endoscopic score of 1 or less) [1, 4]: 69.1% | remission rate (MMDAI: bloody stool score 0, endoscopic score 1 or less, stool frequency score 0 or decrease of 1 point or more from week 0) ([1]; budesonide 2 mg rectal foam once a day, 6 weeks): 50.9% | remission rate (MMDAI: bloody stool score 0, endoscopic score 1 or less, stool frequency score 0 or decrease of 1 point or more from week 0) ([1]; budesonide 2 mg rectal foam twice a day, 6 weeks): 48.2% | mucosal healing rate (proportion of subjects with MMDAI endoscopic score of 0) [1, 5]: 46.4% | mucosal remission rate (proportion of subjects with MMDAI endoscopic score of 1 or less) [1, 5]: 76.8% | mucosal healing rate, point estimate of proportion difference from placebo group ([1]; once a day group, 6 weeks): 18.1% | mucosal remission rate, point estimate of proportion difference from placebo group ([1]; once a day group, 6 weeks): 22.8% | point estimate of the odds ratio versus the placebo group, mucosal healing rate (logistic regression) ([1]; once a day group, 6 weeks): 5.143 | point estimate of the odds ratio versus the placebo group, remission rate (logistic regression) ([1]; once a day group, 6 weeks): 3.994 | incidence of adverse events related to glucocorticoids ([1]; twice a day group compared with once a day group): increase in the incidence of adverse events related to glucocorticoids is not observed | mucosal healing rate, point estimate of proportion difference from placebo group ([1]; twice a day group, 6 weeks): 40.9% | mucosal remission rate, point estimate of proportion difference from placebo group ([1]; twice a day group, 6 weeks): 30.5% | point estimate of the odds ratio versus the placebo group, mucosal healing rate (logistic regression) ([1]; twice a day group, 6 weeks): 15.553 | point estimate of the odds ratio versus the placebo group, remission rate (logistic regression) ([1]; twice a day group, 6 weeks): 3.674 | Case (subjects in mucosal remission, endoscopic score 1 or less) [2, 6]: 38 | Case (subjects with mucosal healing, endoscopic score 0) [2, 6]: 13 | Case (subjects in mucosal remission, endoscopic score 1 or less) [2, 7]: 43 | Case (subjects with mucosal healing, endoscopic score 0) [2, 7]: 26
